Data from patent publication US8273340B2, “Methods and compositions for attracting or repelling cockroaches” (The United States of America, as represented by the …, priority 2008, dated 2012).

Tested on: Male cockroaches (Blattela germanica)
Assay: Y-tube olfactometer bioassay of controlled release pellets aged in a fume hood
Assay type: in vivo
Conditions: for Percent Response: mean of 3 replicates; for activity in the olfactometer (in words): charcoal as the absorbent, after one hour in the fume hood
Description: Olfactometer Bioassay: The Y-tube bioassay apparatus was similar to that described by Vander Meer et al. (J. Chem. Ecol., 14: 825-838 (1988)). Compressed air (breathing-air quality) was passed into the two choice arms at 0.2 l/min for a total flow of 0.4 l/min. Flow rates were adjusted and controlled by two flow meters (Omega Engineering, Inc.). All tubing carrying the air was either copper or Teflon. Prior to evaluating treatment samples, a positive standard was put through the bioassay procedure. The standard was initially an attractive food material (grape flavoring concentrate used at 0.33%) and later 0.5% (w/v) methyl tiglate, one of the compounds of the present invention, in white, light mineral oil (Aldrich Chemical Co.). […] Test samples (10.0 μl) and the solvent blank (mineral oil, 10.0 μl) were applied to filter paper strips (0.3×1.0 cm, Whatman No. 1) and then each was placed into one of the two choice arms. Male cockroaches (Blattela germanica) were prepared for their introduction into the olfactometer by placing them in a Teflon tube (3 cm×0.8 cm) that had one end blocked with a piece of copper mesh screen. The open end of tube was closed with a lightly attached piece of tape. The cockroaches were introduced individually by removing the tape and quickly inserting the Teflon tube into the entrance arm of the olfactometer. […] The initial choice of the cockroach was recorded. The cockroach was removed and the process was repeated 10 times with the same test and blank samples. The 10 choices usually required less than 5 minutes to complete. After each set of 10 cockroaches had made their choice, the olfactometer was rinsed with acetone, dried, and reassembled for the next test. Each sample was retested with the same cockroaches, but with the sample and control in reverse positions. The sum of the results from the two tests represented one replicate. This procedure minimized bias inherent in the apparatus. A null hypothesis of equal numbers of cockroaches in each arm was tested with chi-square analysis. […] Results in-between were neutral.
Controlled Release Formulations: Four esters found to be significant cockroach attractants were selected for evaluation in controlled release formulations-developed by BioGuard, Inc. Six controlled release formulations from BioGuard were evaluated in the olfactometer. The attractants were methyl tiglate, butyl hexanoate, propyl propanoate, and butyl heptanoate. The attractants were absorbed to either coconut shell charcoal pellets or potassium substituted crystalline zeolite pellets, and then coated with water soluble methylcellulose. The powdered methyl cellulose was dissolved in 80° C. water until saturation, cooled to approx 25° C., the pellets immersed into the solution for a 30 sec, and removed and rapidly air dried with 30° C. pre-dried air. The end products were pellets (charcoal=2 mm×4 mm dia.; molecular sieve=4 mm×1.5 mm dia.). […] A single pellet was used in place of the filter paper described above. The control side was left blank.

[1] = Charcoal absorbent, methylcellulose coated pellet, aged 1 hour in fume hood
[2] = Molecular Sieve absorbent, methylcellulose coated pellet, aged 1 hour in fume hood

Row | SMILES | Percent Response [1] [%] | Percent Response [2] [%] | activity in the olfactometer (in words) | Percent Response (charcoal controlled release formulation, aged 24 hours in fume hood) [%] | Percent Response (charcoal controlled release formulation, aged 48 hours in fume hood) [%]
1 | CCCOC(=O)CC [Propyl Propanoate] | 65.0 | 50.0 | significantly active |  | 
2 | C/C=C(\C)C(=O)OC [methyl tiglate, methyl ester of tiglic acid (trans-2-methyl-2-butenoic acid (methyl tiglate))] | 76.6 | 50.0 | significantly active | 66.7 | 61.6
